Like-named read-outs stand apart in the source and are kept apart here.
Experiments:
[1] = in vitro; details: monkey, Vero-cSLAM cells
[2] = target: CDV polymerase complex (Canine distemper virus, UniProt P06940+P24658); test: cell-based; type: cell-based; details: for effect on minigenome luciferase activity (RdRp complex activity): compound 1 10 μM, compound 3 50 μM, Bsr-T7 cells, 48 h
[3] = test system: virions (OP^neon/nLucP); test: Virucidal effect; type: cell-based, canine distemper virus; details: 1 h at 4°C, then dilution to noninhibitory concentration, Vero-cSLAM
Protocol: The virus-compound mixtures were then diluted 10-fold, thereby reaching noninhibitory concentrations. […] Upon inoculation of the diluted mixtures in Vero-cSLAM cells, the viral infectivity was assessed.
OP^neon/nLucP (MOI of 4) was added in a plate containing or not each compound and incubated for 60 min at 4°C. Afterward, the virus and compound mixture was diluted to a noninhibitory drug concentration and added to a monolayer of Vero-cSLAM cells. After 24 h, luminescence was measured using the Nano-Glo live cell assay system (Promega).

[4] = test system: wild-type A75/17-CDV (A75^neon/nLucP); test: microbe, parasite or virus in culture; type: cell-based; details: canine distemper virus, Vero-cSLAM cells
[5] = target: membrane-anchored OP-CDV F-protein (Canine distemper virus, UniProt P12569); test: Heat shock resistance of prefusion F conformation (flow cytometry); details: heat shock 65°C; compound 3 75 μM, compound 1 10 μM
[6] = test system: attenuated OP-CDV strain (OP^neon/nLucP); test: microbe, parasite or virus in culture; type: cell-based, canine distemper virus
[7] = test system: wild-type A75/17-CDV strain (A75^neon); type: cell-based, canine distemper virus
[8] = test system: rNiV-EGFP; test: microbe, parasite or virus in culture; type: cell-based, Nipah virus; details: Henipavirus nipahense
[9] = Cell viability (cytotoxicity), HEp-2; type: cell-based; details: human, HEp-2 cells
[10] = test system: Vero-cSLAM cells; details: 42 h incubation, flow cytometry
[11] = Cell viability (cytotoxicity), PGSA745-EFNB2; type: cell-based; details: hamster, PGSA745-EFNB2 cells
[12] = test system: PIV-5^neon/nLucP; test: microbe, parasite or virus in culture; type: cell-based, parainfluenza virus type 5; details: PIV-5, Vero cells
[13] = Cell viability (cytotoxicity), P114; type: cell-based, Canine; details: dog, P114 cells
[14] = Cell viability (cytotoxicity), Vero; type: cell-based; details: monkey, Vero cells
[15] = Cell viability (cytotoxicity), MDCK; type: cell-based, Canine; details: dog, MDCK cells
[16] = test system: RSV-GFP; test: microbe, parasite or virus in culture; type: cell-based, respiratory syncytial virus; details: HEp-2 cells, plaque reduction
[17] = test system: MeV (ICB); test: microbe, parasite or virus in culture; type: cell-based; details: Measles morbillivirus, NCI-H358 cells
[18] = test system: Vero-cSLAM cells; test: Cell viability (cytotoxicity), Vero-cSLAM
[19] = test system: MeV polymerase complex; type: cell-based, measles virus
[20] = test system: CDV-induced membrane fusion between effector and target cells; test: Quantitative cell-to-cell fusion assay; type: cell-based; details: exclusively at high concentrations
Text: It is assumed that small molecules at high concentrations may lead to aggregation effects or nonspecific binding.
Measurement of membrane fusion between effector and target cells in presence of increasing concentration of either compound 3 or 1. […] Download FIG S4, TIF file, 3.0 MB.

[21] = Cell viability (cytotoxicity), Bsr-T7; type: cell-based; details: hamster, Bsr-T7 cells
[22] = test system: OP^neon/nLucP; test: Time-of-addition assay; type: cell-based, canine distemper virus; details: 10 μM, compounds added after 20 h of infection, readout 48 h
Protocol: To this end, Vero-cSLAM cells were treated with compound 1 at the time of infection or at distinct time points postinfection. In this set of experiments, two previously characterized compounds (compound 3 and ERDRP-0519 [Fig. 1A]) targeting two distinct stages of the viral life cycle (entry and replication, respectively) were added as controls.
Vero-cSLAM cells (96-well plate format) were infected with OP^neon/nLucP at an MOI of 0.04, in the presence of compound 3G (final concentration, 30 μM), ERDRP-0519 (final concentration, 10 μM), or ZHAWO9045 (final concentration 10 μM) added at the indicated time points. Control cells were infected in the presence of equal amounts of DMSO. At 48 h postinfection, luminescence was measured using the Nano-Glo live cell assay system (Promega).

[23] = test system: VSV; type: cell-based, vesicular stomatitis virus; details: Vero cells
[24] = Cell viability (cytotoxicity), NCI-H358; type: cell-based; details: human, NCI-H358 cells
[25] = test system: MeV (Edm); test: microbe, parasite or virus in culture; type: cell-based; details: Measles morbillivirus
[26] = Cell viability (cytotoxicity), Vero-cNectin-4; type: cell-based; details: monkey, Vero-cNectin-4 cells
[27] = canine distemper virus, 24 h, read-out: IC50 (CDV), Table S5, full list, Vero-cSLAM, CDV OP^neon/nLuc, 24 h postinfection, interval in brackets
[28] = canine distemper virus, CDV (OP), Vero-cSLAM cells
[29] = canine distemper virus, 24 h, Table S3, aromatic heterocycles and N-alkylated aminothiazoles, Vero-cSLAM, CDV OP^neon/nLuc, 24 h postinfection, interval in brackets
[30] = canine distemper virus, BSR-T7, in Mesocricetus auratus, CDV (OP), Bsr-T7 cells (hamster)
[31] = canine distemper virus, MDCK, in Canis lupus familiaris, CDV (OP), MDCK cells (canine)
[32] = canine distemper virus, Vero, CDV (OP), Vero cells
[33] = canine distemper virus, in Canis lupus familiaris, CDV (OP), P114 cells (canine)
[34] = human respiratory syncytial virus, HEp-2, RSV

CDV polymerase complex, sequence (P24658 whole entry): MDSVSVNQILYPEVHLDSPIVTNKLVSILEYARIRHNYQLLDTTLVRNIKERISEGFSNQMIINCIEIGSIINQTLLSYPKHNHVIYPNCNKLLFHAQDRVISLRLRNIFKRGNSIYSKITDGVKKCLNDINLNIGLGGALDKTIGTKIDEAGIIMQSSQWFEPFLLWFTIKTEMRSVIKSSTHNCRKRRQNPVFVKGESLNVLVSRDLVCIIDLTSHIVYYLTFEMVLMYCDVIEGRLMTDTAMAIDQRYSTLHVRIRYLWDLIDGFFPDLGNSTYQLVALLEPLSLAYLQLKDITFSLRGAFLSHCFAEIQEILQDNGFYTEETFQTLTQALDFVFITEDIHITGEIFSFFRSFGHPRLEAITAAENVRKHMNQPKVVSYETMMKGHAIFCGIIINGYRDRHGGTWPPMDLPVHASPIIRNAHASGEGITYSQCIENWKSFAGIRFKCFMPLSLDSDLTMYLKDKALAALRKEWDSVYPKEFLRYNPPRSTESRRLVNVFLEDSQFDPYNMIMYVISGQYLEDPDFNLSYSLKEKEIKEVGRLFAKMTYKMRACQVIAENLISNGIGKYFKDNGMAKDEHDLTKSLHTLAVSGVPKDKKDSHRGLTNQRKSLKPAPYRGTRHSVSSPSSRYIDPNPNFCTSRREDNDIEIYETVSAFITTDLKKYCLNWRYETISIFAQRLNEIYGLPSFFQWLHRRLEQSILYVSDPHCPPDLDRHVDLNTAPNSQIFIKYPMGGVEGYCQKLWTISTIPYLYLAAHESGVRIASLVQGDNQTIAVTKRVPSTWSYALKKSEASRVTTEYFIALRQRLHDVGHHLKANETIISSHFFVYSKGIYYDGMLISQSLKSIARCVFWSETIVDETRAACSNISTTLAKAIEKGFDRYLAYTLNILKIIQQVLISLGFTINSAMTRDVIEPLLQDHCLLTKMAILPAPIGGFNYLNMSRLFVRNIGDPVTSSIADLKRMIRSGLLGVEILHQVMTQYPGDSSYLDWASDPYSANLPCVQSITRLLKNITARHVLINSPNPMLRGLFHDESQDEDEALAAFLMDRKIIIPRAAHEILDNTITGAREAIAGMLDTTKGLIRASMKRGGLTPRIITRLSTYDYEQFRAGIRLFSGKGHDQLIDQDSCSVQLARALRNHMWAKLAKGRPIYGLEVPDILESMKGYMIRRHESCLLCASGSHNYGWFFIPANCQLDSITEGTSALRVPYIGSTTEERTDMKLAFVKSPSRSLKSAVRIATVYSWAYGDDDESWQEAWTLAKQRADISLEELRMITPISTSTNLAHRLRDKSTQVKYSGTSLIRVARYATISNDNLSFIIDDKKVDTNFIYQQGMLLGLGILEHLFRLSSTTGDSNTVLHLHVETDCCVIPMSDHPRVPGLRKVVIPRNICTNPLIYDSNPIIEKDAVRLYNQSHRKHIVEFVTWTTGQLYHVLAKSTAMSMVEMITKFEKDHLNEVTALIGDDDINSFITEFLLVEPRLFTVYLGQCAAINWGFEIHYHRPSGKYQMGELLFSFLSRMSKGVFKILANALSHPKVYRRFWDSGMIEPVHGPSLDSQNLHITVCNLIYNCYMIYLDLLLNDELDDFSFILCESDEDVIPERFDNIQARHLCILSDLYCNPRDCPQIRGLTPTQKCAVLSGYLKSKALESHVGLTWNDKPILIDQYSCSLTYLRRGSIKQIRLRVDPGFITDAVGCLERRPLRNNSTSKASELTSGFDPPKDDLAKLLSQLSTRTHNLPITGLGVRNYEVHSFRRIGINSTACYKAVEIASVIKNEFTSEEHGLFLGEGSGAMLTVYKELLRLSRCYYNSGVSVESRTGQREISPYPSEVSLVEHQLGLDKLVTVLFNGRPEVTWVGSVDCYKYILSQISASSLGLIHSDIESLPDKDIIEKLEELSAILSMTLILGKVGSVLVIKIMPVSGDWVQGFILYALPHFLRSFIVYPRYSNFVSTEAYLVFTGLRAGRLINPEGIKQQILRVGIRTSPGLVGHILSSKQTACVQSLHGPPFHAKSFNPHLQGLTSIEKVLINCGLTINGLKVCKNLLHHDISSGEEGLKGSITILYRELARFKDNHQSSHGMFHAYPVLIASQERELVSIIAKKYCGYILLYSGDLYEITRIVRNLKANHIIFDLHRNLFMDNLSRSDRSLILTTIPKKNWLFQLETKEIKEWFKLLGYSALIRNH
CDV polymerase complex, sequence (P06940 whole entry): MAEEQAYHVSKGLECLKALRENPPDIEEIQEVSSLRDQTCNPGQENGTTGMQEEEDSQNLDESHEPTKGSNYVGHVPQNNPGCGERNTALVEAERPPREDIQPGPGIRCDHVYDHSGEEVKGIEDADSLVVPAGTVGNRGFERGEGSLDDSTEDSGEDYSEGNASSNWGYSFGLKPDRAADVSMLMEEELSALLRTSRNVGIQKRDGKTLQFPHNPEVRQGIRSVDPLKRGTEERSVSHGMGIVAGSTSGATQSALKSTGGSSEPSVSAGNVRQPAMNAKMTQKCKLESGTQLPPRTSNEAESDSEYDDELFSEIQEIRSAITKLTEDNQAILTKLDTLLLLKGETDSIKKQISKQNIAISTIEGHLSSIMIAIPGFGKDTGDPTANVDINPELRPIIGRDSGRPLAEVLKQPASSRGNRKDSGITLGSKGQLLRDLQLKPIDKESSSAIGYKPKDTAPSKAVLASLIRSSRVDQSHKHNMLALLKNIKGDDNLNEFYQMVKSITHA
membrane-anchored OP-CDV F-protein, sequence (P12569 136-224): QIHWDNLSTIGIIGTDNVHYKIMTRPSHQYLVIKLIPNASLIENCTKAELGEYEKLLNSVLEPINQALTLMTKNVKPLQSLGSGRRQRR
membrane-anchored OP-CDV F-protein, sequence (P12569 225-662): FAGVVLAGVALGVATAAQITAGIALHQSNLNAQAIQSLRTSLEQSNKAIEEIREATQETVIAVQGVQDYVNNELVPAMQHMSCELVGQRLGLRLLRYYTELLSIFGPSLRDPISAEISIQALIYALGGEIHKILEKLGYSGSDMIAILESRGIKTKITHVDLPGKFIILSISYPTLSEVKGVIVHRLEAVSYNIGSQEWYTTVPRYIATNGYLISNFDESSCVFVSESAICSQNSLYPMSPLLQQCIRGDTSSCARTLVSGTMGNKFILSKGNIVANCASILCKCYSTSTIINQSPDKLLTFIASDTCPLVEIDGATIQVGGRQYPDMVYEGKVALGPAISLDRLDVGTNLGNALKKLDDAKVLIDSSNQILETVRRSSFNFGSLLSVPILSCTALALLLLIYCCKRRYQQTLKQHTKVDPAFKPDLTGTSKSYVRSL

SMILES	CC50 [1]	effect on minigenome luciferase activity (RdRp complex activity) [2]	inhibitory activity after 10-fold dilution of virus-compound mixture (virucidal activity) [3]	IC50 [4]	stabilizing effect on prefusion F-trimers [5]	IC50 [6, 27]	IC50 [6, 28]	CC50 [9]	concentration at which impact on cell cycle progression (G1 arrest) is statistically significant [10]	IC50 ([12]; parainfluenza virus 5, Vero)	CC50 [13]	CC50 [14]	CC50 [15]	IC50 [6, 29]	IC50 [6, 30]	IC50 [6, 31]	IC50 [6, 32]	IC50 [6, 33]	IC50 [16, 34]	also measured
N#Cc1cccc(NC(=O)Cc2ccccc2)c1 [compound 3, reference compound]	130 µM	luciferase activity remained similar to that for vehicle	still efficiently prevented viral infectivity even after the dilution step	6 µM	strong stabilizing effect	26 µM	8 µM													
Cn1nc(C(F)(F)F)cc1C(=O)Nc1ccc(S(=O)(=O)N2CCCC[C@H]2CCN2CCOCC2)cc1 [ERDRP-0519, reference compound]																				tolerated dose at the end of adaptation ([7]; stepwise adaptation of A75/17-CDV): ≥ 30 µM
CN(C(=O)COc1cccc2c1OC(C)(C)C2)c1nc2c(s1)CCCC2 [compound 2]	54 µM			0.0032 µM			0.0026 µM	51 µM	1 µM	0.015 µM	65 µM	52 µM	87 µM	0.0084 µM	0.012 µM	0.065 µM	0.003 µM	0.019 µM	0.031 µM	IC50 [8]: 0.08 µM; CC50 [11]: 80 µM; IC50 ([6]; Vero-cSLAM, CDV OP^neon/nLuc, luciferase 24 h postinfection): single-digit nanomolar
C#CCCCN(C(=O)COc1cccc2c1OC(C)(C)C2)c1nc2ccccc2s1 [compound 23]														0.27 µM						
CC1(C)Cc2cccc(OCC(=O)Nc3nc4ccccc4s3)c2O1 [compound 1]	52 µM	sufficient to significantly inhibit the luciferase activity	entirely lost its inhibitory activity	~0.7 µM	did not	0.53 µM	~0.45 µM	110 µM	30 µM	~7 µM	57 µM	46 µM	99 µM		~7 µM	30 µM	0.4 µM	2.6 µM	~6 µM	inhibition at 10 µM ([2]; BSR-T7, read-out: inhibition of polymerase activity in the minigenome assay): ~50%; IC50 [17]: 0.37 µM; CC50 [18]: ~50 µM; effect on MeV polymerase activity (minigenome) [19]: inhibition of MeV polymerase activity was recorded; effect on membrane fusion activity [20]: enhance fusion activity; CC50 [21]: 50 µM; time-of-addition inhibition profile [22]: acted like ERDRP-0519; antiviral activity against VSV [23]: did not display any activity; IC50 [12]: 7.2 µM; CC50 [24]: 50 µM; IC50 ([25]; NCI-H358): 0.52 µM; IC50 ([25]; Vero): 0.25 µM; CC50 [26]: 43 µM; IC50 ([6]; CDV (OP), Bsr-T7 cells (hamster)): 7.3 µM; IC50 ([6]; canine distemper virus, 24 h, Vero-cSLAM, CDV OP^neon/nLuc, luciferase 24 h postinfection): 0.52 µM; IC50 ([6]; canine distemper virus, CDV (OP), Vero-cNectin-4 cells): 0.43 µM; IC50 ([6]; canine distemper virus, read-out: IC50 values, summary for MeV and CDV): 0.2 to 0.7 µM; emergence of viral resistance ([7]; 83-day study, four separate replicates): did not induce any detectable viral resistance; IC50 ([16]; RSV): 5.9 µM

From PMC8561388 (mBio, 2021)
